# Test results reported in PMC12116762, “Topobexin targets the Topoisomerase II ATPase domain for beta isoform-selective inhibition and anthracycline cardioprotection” (Nature Communications, 2025).
# Where “and” joins values, the source holds several entries; their conditions need not be identical. Equal values may be shown once.
# Columns and labels:
# recombinant human TOP2A = target: T1, recombinant human TOP2A (Homo sapiens, UniProt P11388); assay: In vitro ATPase activity of TOP2A (coupled assay); assay type: biochemical; conditions: n=3
# T1 construct: Using recombinant full-length human TOP2A and TOP2B enzymes; YFP (N, cleaved yes); made in house; host or cells: HEK293F
# Protocol: (§1) Topoisomerase proteins were diluted to 500 nM in storage buffer containing 20 mM HEPES pH 7.5, 500 mM NaCl, 0.5 mM TCEP, 25% glycerol, and 0.2 mg/mL BSA prior to use. A coupled assay was used to measure TOP2-catalyzed ATP hydrolysis in vitro[37] in Costar 96-well plates (Corning Incorporated). […] Reaction plates were pre-warmed to 30 °C for 5 min and ATP was added last to initiate the reaction. The reaction plate was placed in a CLARIOstarPlus plate reader (BMG Labtech) to measure NADH fluorescence at 30 °C every 30 s over 120 cycles using a 340-60 excitation filter and a 480-100 emission filter. Background fluorescence signals calculated from wells containing no ATP were subtracted from each measurement. The slope of NADH fluorescence decay in each well was calculated using the MARS software (BMG Labtech) and reaction wells that lacked topoisomerase inhibitor to account for photobleaching of NADH fluorescence served as background subtraction. Each presented data point was obtained from distinct sample. Values were normalized to untreated controls and plotted as a function of inhibitor concentration to determine IC50 values using Prism 9 (GraphPad).
# [1] = test system: neonatal rat ventricular cardiomyocytes (NVCM); assay: Protection against DAU-induced cytotoxicity (LDH release) in NVCM; assay type: cell-based; design: key to Suppl.Fig.3 DAU-induced cytotoxicity (LDH release) in NVCM, mean of independent replicates / LDH release (DAU-induced cytotoxicity), mean of independent replicates: % of total LDH activity; conditions: for minimal effective concentration: Rattus norvegicus, Cardiomyocyte, NVCM, protection against DAU 1.2 µM, n=4, read-out: LEC = lowest effective concentration
# Protocol: (§2) The protective effects of the BNS-22 and newly prepared compounds were evaluated using primary cultures of neonatal rat cardiomyocytes isolated in house as previously described. Hearts isolated from 1- to 3-day-old Wistar rats were minced in buffer (1.2 mM MgSO4 · 7H2O, 116 mM NaCl, 5.3 mM KCl, 1.13 mM NaH2PO4 · H2O, 20 mM 4-(2-hydroxyethyl)-1-piperazine ethanesulfonic acid (HEPES), glucose 1 mg/mL) on ice, then serially digested (20 min, six repetitions) at 37 °C with collagenase type II (60 U/mL, Gibco). After 2 h pre-plating in a 150 mm Petri dish per approximately 20 hearts to minimize non-myocyte contamination, cells were plated in 24-well gelatin-coated plates at a density of 400,000 cells per well. Cells were cultured at 37 °C and 5% CO2 in Dulbecco’s modified Eagle medium (DMEM)/ F12 culture medium supplemented with 10% horse serum, 5% fetal bovine serum (FBS), 20 mM sodium pyruvate, 50 U/mL penicillin, and 50 μg/mL streptomycin. Freshly isolated cells were left for 40 h to attach and form a culture of spontaneously beating cardiomyocytes, then the medium was changed to DMEM/F12 medium supplemented with 5% fetal bovine serum, 20 mM sodium pyruvate, 50 U/mL penicillin, and 50 μg/mL streptomycin. For the experiments, the medium was changed to serum- and pyruvate-free DMEM/F12 with 50 U/mL penicillin and 50 μg/mL streptomycin. Cardiomyocytes were pretreated with BNS-22 or new compounds for 3 h and then coincubated with DAU (1.2 µM) for another 3 h. After the DAU treatment period, the culture medium was exchanged for the drug-free DMEM/F12 with 50 U/mL penicillin and 50 μg/mL streptomycin for the 48 h follow-up. Experiments to determine the inherent toxicity of each compound studied follow the same schedule, only no DAU was added. Subsequently, the culture medium sample was taken from each well for evaluation of lactate dehydrogenase (LDH) activity. The total LDH activity of each sample for normalization was measured after 1 h of incubation at 37 °C in lysis buffer (0.1 M potassium phosphate, 1% Triton X-100, 1 mM dithiothreitol (DTT), 2 mM EDTA, pH 7.8, 15 min in RT). All samples were immediately analyzed in Tris HCl buffer (pH 8.9) containing 35 mM lactic acid and 5 mM NAD^+. The rate of NAD^+ reduction was monitored spectrophotometrically at 340 nm for 2 min. The slope of the linear region was calculated, and the results were expressed as a percentage of the total LDH. Each presented data point was obtained from distinct sample.
# recombinant human TOP2B = target: T2, recombinant human TOP2B (Homo sapiens, UniProt Q02880); assay: In vitro ATPase activity of TOP2B (coupled assay); assay type: biochemical; conditions: for SRbeta (SRTOP2B), TOP2 ATPase activity: TOP2A IC50 divided by TOP2B IC50; for IC50: n=3
# T2 construct: Using recombinant full-length human TOP2A and TOP2B enzymes; YFP (N, cleaved yes); made in house; host or cells: HEK293F
# Protocol: as §1
# [2] = test system: neonatal rat ventricular cardiomyocytes (NVCM); assay: Inherent toxicity (LDH release) in NVCM; assay type: cell-based; design: key to LDH release (inherent toxicity), mean of independent replicates: % of total LDH activity; conditions: NVCM; for LDH release (inherent toxicity), mean of independent replicates: Suppl.Fig.4
# Protocol: as §2
# [3] = target: T3, TOP2B-DNA covalent complex (Homo sapiens, UniProt Q02880); assay: RADAR assay, etoposide-induced TOP2B-DNA covalent complex in HEK293F cells; assay type: cell-based; conditions: etoposide 5 μM alone; independent replicates
# T3 construct: endogenous in cells; host or cells: HEK293F
# Protocol: (§3) HEK293F cells were plated at 3 × 10^5 cells per well and grown overnight. […] Upon removal of media, cells in each well were immediately lysed with 750 µL DNAzol (Molecular Research Center, Inc.) and the DNA was precipitated by addition of 375 µL of 100% ethanol. This step was then repeated to eliminate protein aggregates. Precipitate from each sample was pelleted via centrifugation at 4 °C and max speed for 5 min. The pellets were washed twice with buffer containing 20 mM Tris pH 7.5, 1 mM EDTA pH 8.0, 50 mM NaCl, 50% EtOH, and at the end of each wash, centrifugation at 4000 × g for 2 min was repeated to isolate the DNA pellets. The pellets were washed in 75% EtOH and then collected by centrifugation at 4 °C and max speed for 5 min. The supernatant was removed via pipetting, and the remaining pellets were air dried for 5 min before 50 µL 8 mM NaOH and 0.1% Tween-20 was added to each pellet. Once no visible precipitate remained, each mixture was supplemented with 5 µL of Benzonase buffer containing 500 mM Tris pH 8.0, 10 mM MgCl2, 1/1000 Roche complete protease inhibitor cocktail (Millipore Sigma) and 40 units Benzonase (Millipore Sigma) followed by 30 to 60 min incubation at 37 °C until the pellets were fully dissolved. The DNA content from each sample was quantified on a nanodrop, and 10 µg of DNA was diluted to a final volume of 200 µL in 8 mM NaOH and 0.1% Tween. The samples were applied over the Whatman Minifold I dot blot apparatus (Cytiva) and collected on a PVDF membrane (Thermo Fisher Scientific). The membrane was washed three times with 8 mM NaOH and 0.1% Tween-20 solution prior to removal and blocking with the same wash solution containing 1 mg/mL BSA. Western blotting was carried out on an iBind (Thermo Fisher Scientific) and TOP2 proteins were detected using isoform-specific antibody against full length TOP2A (1:250 dilution; HT2A21, Inspiralis) and TOP2B (1:500 dilution; 611493, BD Biosciences) and visualized with anti-rabbit (1:1000 dilution; 926-68071, LI-COR Bio) and anti-mouse (1:1000 dilution; 926-32210, LI-COR Bio) secondary antibodies in iBind running buffer. The blots were imaged on a LI-COR Odyssey Fc and analysed using ImageStudio. Each presented data point was obtained from distinct sample.
# [4] = target: T4, TOP2A-DNA covalent complex (Homo sapiens, UniProt P11388); assay: RADAR assay, etoposide-induced TOP2A-DNA covalent complex in HEK293F cells; assay type: cell-based; conditions: etoposide 5 μM alone; independent replicates
# T4 construct: endogenous in cells; host or cells: HEK293F
# Protocol: as §3
# YFP-TOP2B = target: T5, YFP-TOP2B (Homo sapiens, UniProt Q02880); assay: FRAP analysis, YFP-TOP2B in HEK293F cells; assay type: cell-based; conditions: 15 min pre-incubation
# T5 construct: Using recombinant full-length human TOP2A and TOP2B enzymes; expressed in transfected cells; host or cells: HEK293F
# Protocol: (§4) HEK293F cells were transfected with DNA plasmids encoding yellow-fluorescent protein (YFP)-TOP2A or YFP-TOP2B (the same DNA constructs for mammalian protein expression and purification) using Lipofectamine 2000 (Thermo Fisher Scientific). Cells were cultured for 24 h post transfection and YFP signals were confirmed prior to FRAP experiments. Transfected cells were plated on glass-bottomed culture dishes (Matsunami) and rested overnight. The next day, each dish was pre-incubated with the indicated inhibitor treatment or DMSO control for 15 min prior to FRAP experiment. Each set of experiments was repeated on at least two different days using newly transfected cells each time. Live-cell imaging was done using a LSM 980 microscope (Carl Zeiss Microscopy, LLC). YFP signal was excited at 508 nm at 2% laser power and detected through a 516–604 nm range. A small area within the nucleus (purple box) is manually selected for fluorescence bleaching at 100% laser power for 50 iterations. Inhibition of TOP2 by obex inhibitors was detected by impairment in fluorescence recovery at 15 s post bleaching, as a lack of inhibition allows for TOP2 diffusion throughout the nucleus.
# YFP-TOP2A = target: T6, YFP-TOP2A (Homo sapiens, UniProt P11388); assay: FRAP analysis, YFP-TOP2A in HEK293F cells; assay type: cell-based; conditions: 15 min pre-incubation
# T6 construct: Using recombinant full-length human TOP2A and TOP2B enzymes; expressed in transfected cells; host or cells: HEK293F
# Protocol: as §4
# T2 sequence (Q02880 1-1621 isoform Q02880-2): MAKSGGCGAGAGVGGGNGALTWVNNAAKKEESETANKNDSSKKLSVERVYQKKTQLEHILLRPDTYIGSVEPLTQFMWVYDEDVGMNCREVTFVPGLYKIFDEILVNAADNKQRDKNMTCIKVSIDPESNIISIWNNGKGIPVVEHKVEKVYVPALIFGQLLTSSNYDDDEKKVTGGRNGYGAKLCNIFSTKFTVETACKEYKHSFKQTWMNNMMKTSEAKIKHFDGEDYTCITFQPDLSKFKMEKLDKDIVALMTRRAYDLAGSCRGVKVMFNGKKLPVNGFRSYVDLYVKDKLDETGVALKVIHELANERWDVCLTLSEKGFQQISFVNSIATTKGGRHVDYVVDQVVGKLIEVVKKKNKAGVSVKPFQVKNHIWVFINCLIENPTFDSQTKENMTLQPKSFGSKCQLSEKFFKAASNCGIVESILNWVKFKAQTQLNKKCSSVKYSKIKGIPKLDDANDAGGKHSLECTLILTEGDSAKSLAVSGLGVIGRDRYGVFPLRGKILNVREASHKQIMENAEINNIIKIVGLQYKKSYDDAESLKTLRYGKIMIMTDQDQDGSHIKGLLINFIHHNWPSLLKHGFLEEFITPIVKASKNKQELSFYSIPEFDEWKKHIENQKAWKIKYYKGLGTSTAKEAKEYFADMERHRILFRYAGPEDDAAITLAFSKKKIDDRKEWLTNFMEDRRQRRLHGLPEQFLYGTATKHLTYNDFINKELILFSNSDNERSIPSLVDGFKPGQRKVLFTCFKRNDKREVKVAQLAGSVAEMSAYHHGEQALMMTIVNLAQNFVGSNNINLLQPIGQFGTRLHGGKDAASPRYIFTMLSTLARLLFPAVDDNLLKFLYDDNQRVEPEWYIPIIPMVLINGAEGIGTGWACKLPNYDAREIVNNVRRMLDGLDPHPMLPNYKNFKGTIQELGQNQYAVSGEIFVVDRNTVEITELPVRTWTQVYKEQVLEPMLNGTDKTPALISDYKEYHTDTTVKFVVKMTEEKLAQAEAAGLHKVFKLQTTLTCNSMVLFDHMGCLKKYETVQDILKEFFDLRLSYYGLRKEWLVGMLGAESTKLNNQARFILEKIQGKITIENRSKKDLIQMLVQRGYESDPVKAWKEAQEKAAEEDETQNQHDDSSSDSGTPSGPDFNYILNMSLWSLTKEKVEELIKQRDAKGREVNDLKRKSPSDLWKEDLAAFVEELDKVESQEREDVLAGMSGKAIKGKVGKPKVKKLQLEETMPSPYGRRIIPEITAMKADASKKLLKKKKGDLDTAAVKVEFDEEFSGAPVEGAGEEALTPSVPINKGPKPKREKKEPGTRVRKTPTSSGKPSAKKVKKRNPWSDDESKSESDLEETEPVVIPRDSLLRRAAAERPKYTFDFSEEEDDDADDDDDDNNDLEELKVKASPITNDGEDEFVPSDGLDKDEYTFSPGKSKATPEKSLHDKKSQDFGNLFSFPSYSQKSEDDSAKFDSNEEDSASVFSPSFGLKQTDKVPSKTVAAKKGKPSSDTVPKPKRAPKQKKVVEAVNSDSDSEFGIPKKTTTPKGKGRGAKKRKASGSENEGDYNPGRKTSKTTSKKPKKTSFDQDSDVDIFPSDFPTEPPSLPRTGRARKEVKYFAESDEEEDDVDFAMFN
# T1 sequence (P11388 whole entry): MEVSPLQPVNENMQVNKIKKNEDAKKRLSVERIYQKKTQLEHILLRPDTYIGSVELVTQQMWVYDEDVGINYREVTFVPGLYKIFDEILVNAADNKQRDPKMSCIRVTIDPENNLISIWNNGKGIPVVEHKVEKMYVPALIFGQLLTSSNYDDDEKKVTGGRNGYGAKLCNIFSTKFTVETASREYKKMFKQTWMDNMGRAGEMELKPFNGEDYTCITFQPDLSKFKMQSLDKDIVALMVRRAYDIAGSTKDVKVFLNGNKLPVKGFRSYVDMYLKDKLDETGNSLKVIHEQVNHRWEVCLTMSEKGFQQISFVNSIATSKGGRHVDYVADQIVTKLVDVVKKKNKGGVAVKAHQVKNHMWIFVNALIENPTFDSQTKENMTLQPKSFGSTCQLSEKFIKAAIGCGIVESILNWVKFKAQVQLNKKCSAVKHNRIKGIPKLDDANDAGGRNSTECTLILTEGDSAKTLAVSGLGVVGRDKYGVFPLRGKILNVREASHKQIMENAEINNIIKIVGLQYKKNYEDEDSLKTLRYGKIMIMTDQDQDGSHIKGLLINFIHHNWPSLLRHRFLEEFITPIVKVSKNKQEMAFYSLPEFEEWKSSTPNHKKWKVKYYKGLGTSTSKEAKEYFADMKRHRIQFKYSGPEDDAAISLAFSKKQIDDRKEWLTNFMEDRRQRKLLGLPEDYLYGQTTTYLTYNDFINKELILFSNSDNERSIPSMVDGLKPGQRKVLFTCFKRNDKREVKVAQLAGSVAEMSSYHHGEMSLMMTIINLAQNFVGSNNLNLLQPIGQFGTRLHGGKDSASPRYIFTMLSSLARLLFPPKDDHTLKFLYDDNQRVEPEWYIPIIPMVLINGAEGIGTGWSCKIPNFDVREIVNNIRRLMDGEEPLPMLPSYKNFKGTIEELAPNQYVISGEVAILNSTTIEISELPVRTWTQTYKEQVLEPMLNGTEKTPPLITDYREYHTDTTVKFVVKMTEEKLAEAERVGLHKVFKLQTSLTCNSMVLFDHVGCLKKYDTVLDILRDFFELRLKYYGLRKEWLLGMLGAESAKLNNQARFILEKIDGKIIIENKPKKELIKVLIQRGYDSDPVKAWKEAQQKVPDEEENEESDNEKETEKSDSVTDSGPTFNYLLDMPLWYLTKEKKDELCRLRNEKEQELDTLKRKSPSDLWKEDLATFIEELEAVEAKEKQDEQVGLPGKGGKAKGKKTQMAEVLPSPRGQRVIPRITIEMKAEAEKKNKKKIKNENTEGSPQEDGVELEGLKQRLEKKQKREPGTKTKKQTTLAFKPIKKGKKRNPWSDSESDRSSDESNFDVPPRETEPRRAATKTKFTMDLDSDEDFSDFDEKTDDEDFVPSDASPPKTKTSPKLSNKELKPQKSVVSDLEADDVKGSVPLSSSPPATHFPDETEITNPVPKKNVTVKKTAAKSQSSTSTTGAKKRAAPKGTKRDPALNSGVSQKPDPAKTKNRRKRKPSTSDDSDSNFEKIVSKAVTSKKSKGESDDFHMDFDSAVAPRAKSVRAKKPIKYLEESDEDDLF
# T4 sequence (P11388 whole entry, one chain of several): as the sequence (P11388 whole entry) above
# T3 sequence (Q02880 2-1626 limits assumed, one chain of several): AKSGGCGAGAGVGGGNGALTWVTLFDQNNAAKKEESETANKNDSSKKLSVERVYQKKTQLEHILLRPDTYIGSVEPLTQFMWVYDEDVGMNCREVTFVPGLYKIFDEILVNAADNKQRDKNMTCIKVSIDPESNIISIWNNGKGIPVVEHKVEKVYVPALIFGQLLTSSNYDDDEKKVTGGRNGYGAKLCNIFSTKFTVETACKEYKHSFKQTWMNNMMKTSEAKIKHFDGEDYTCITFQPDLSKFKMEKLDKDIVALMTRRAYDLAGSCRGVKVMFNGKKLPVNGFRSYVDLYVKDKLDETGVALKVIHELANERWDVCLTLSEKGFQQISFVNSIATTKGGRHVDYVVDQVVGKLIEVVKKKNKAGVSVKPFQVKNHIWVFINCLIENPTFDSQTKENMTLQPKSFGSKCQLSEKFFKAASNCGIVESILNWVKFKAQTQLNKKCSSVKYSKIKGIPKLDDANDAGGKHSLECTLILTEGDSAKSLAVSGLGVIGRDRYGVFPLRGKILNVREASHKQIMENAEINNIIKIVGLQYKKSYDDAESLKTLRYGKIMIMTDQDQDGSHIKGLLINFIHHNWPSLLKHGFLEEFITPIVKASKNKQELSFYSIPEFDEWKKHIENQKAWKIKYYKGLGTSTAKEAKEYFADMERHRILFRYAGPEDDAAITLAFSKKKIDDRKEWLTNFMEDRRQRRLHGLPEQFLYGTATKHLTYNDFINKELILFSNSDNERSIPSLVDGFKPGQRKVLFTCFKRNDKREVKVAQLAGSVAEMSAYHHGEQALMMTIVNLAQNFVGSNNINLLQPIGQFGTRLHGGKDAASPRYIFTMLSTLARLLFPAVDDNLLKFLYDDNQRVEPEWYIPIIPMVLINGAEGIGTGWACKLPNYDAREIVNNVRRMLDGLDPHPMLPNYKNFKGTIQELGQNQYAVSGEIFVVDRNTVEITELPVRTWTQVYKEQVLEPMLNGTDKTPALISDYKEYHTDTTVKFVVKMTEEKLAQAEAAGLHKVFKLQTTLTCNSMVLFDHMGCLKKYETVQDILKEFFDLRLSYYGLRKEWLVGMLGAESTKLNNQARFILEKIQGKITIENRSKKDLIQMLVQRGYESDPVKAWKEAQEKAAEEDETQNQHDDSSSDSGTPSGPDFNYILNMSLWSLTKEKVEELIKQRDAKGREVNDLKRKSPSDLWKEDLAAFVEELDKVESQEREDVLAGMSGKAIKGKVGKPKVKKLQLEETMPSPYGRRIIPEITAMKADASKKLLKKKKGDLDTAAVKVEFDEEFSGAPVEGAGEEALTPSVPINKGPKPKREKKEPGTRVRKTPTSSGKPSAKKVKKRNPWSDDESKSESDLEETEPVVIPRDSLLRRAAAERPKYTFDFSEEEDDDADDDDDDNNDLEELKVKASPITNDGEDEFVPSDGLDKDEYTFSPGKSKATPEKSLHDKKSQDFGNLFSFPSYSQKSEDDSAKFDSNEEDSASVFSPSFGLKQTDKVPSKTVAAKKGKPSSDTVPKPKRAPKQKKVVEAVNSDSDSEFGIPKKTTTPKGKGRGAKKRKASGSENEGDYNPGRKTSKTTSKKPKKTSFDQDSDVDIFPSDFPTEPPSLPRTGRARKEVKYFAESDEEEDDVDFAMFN
# T5 sequence (Q02880 1-1621 isoform Q02880-2): as the sequence (Q02880 1-1621 isoform Q02880-2) above
# T6 sequence (P11388 whole entry): as the sequence (P11388 whole entry) above
IC50 (recombinant human TOP2A) [µM],"SRbeta (SRTOP2B), TOP2 ATPase activity (recombinant human TOP2B)",IC50 (recombinant human TOP2B) [µM],SMILES,minimal effective concentration [1] [µM],"Suppl.Fig.3 DAU-induced cytotoxicity (LDH release) in NVCM, mean of independent replicates ([1]; compound 0.1 µM + DAU 1.2 µM)","Suppl.Fig.3 DAU-induced cytotoxicity (LDH release) in NVCM, mean of independent replicates ([1]; compound 1 µM + DAU 1.2 µM)","Suppl.Fig.3 DAU-induced cytotoxicity (LDH release) in NVCM, mean of independent replicates ([1]; compound 10 µM + DAU 1.2 µM)","Suppl.Fig.3 DAU-induced cytotoxicity (LDH release) in NVCM, mean of independent replicates ([1]; compound 30 µM + DAU 1.2 µM)","Suppl.Fig.3 DAU-induced cytotoxicity (LDH release) in NVCM, mean of independent replicates ([1]; compound 100 µM + DAU 1.2 µM)","LDH release (inherent toxicity), mean of independent replicates ([2]; compound alone 0.1 µM)","LDH release (inherent toxicity), mean of independent replicates ([2]; compound alone 1 µM)","LDH release (inherent toxicity), mean of independent replicates ([2]; compound alone 10 µM)","LDH release (inherent toxicity), mean of independent replicates ([2]; compound alone 30 µM)","LDH release (inherent toxicity), mean of independent replicates ([2]; compound alone 100 µM)",further results
1.87,2.2,0.85,CCCOc1ccc2c(CCC)cc(=O)oc2c1C(=O)N1CCCc2ccccc21 [4c],0.1,37.3488,27.8991,34.5307,56.7644,78.8192,16.7326,16.4897,23.8379,34.5318,48.1102,"Suppl.Fig.3 DAU-induced cytotoxicity (LDH release) in NVCM, mean of independent replicates ([1]; compound 0.01 µM + DAU 1.2 µM): 45.7304; LDH release (inherent toxicity), mean of independent replicates ([2]; compound alone 0.01 µM): 13.5244"
1.42,1.0,1.46,CCc1cc(=O)oc2c(C(=O)N3CCCc4ccccc43)c(OCCO)ccc12 [5b],10,53.5677,49.2444,40.137,35.8495,–,13.7703,14.0098,14.5134,14.3714,–,"LTC = lowest toxic concentration ([2]; compound alone, n=4): > 30 µM"
–,–,–,"COc1cc([C@@H]2c3cc4c(cc3[C@@H](O[C@@H]3O[C@@H]5CO[C@@H](C)O[C@H]5[C@H](O)[C@H]3O)[C@H]3COC(=O)[C@H]23)OCO4)cc(OC)c1O [etoposide, reference compound]",–,–,–,–,–,–,–,–,–,–,–,TOP2B spot intensity [3]: 173.9 and 77.69 and 59.37 and 61.46; TOP2A spot intensity [4]: 63.37 and 136 and 84.27 and 127.1 and 89.2
0.69,1.0,0.66,CCCc1cc(=O)oc2c(C(=O)N3CCCc4ccccc43)c(O)ccc12 [2c],10,–,33.3224,29.0836,25.5275,35.3978,–,16.6801,16.3877,17.2005,29.603,fluorescence recovery of YFP-TOP2B (FRAP) (YFP-TOP2B): inhibits fluorescence recovery; relative inhibition of TOP2A vs TOP2B (recombinant human TOP2B; ATPase): inhibited TOP2A and TOP2B with equal efficacy; fluorescence recovery of YFP-TOP2A (FRAP) (YFP-TOP2A): inhibits fluorescence recovery
